{"source": "paper PMC11206519", "about": "“Multi-Endpoint Toxicological Assessment of Chrysin Loaded Oil-in-Water Emulsion System in Different Biological Models” (Nanomaterials, 2024)", "key": {"[1]": {"test_system": "S. typhimurium TA 100", "test": "Ames test, mutagenicity", "type": "cell-based, Salmonella Typhimurium", "settings": "positive control", "experimental": "(§1) The S. typhimurium strains TA 98 and TA 100 were used to detect frameshift and base-pair mutations, respectively. […] Then, they were poured onto minimal glucose agar containing a trace amount of histidine, following incubation at 37 °C for 48 h. Then, the revertant colonies were counted and compared with the negative control. If the number of revertant colonies in the tested sample treatment is at least twice that of the negative control (spontaneous revertant colonies), it is considered a mutagen."}, "[2]": {"test_system": "S. typhimurium TA 98", "test": "Ames test, mutagenicity", "type": "cell-based, Salmonella Typhimurium", "settings": "+S9; 0.5 µg/plate, positive control", "experimental": "as §1"}, "[3]": {"test_system": "D. melanogaster trans-heterozygous mwh+/+flr3 larvae of the HB cross", "test": "SMART wing spot test, anti-mutagenicity, HB cross", "experimental": "(§2) The somatic mutation and recombination test, or the wing spot test, using D. melanogaster was employed as an in vivo system to assess the mutagenicity and anti-mutagenicity of chrysin-ES. Two different crosses were conducted: (i) a standard cross (ST) and (ii) a high bioactivation cross (HB). The standard cross larvae were obtained from virgin female of flr3/TM3, Ser crossed with males of mwh/mwh, while the HB cross larvae expressing cytochrome P450 enzymes involved in xenobiotic biotransformation were obtained from virgin females of ORR/ORR; flr^3/In (3LR) TM3, ri p^psep l (3)89Aa bx^34e e Bd^s crossed with males of mwh/mwh. The flies were cultured at a constant temperature of 25 ± 1 °C and 60–70% RH at photoperiod 12:12 (light/dark). To evaluate the mutagenicity of chrysin and chrysin-ES, a hundred larva F1 progenies derived from the above crossing were fed with instant Drosophila medium (Formula 4-24®), Carolina, Burlington, NC, USA) containing chrysin or chrysin-ES (20–120 µg/mL). DI was used as a negative control, while 20 mM urethane (URE) was used as a positive control. The larvae were reared on each medium until pupation at 25 °C. After that, forty wings of surviving flies in each group were collected for mutant analysis. The mutant spots on the wings, including small single spots, large single spots, and twin spots, were counted. The statistical significance was calculated as previously described by Frei and Würgler.\n(§3) Furthermore, the anti-mutagenicity of the samples was performed by a similar procedure as mentioned above."}, "[4]": {"test_system": "D. melanogaster trans-heterozygous mwh+/+flr3 larvae of the ST cross", "test": "SMART wing spot test, anti-mutagenicity, ST cross", "experimental": "as §2, §3"}, "[5]": {"test_system": "S. typhimurium TA100", "test": "Ames test, anti-mutagenicity", "settings": "standard mutagen alone, 0.05 µg/plate, +S9", "experimental": "(§4) Furthermore, the anti-mutagenicity of the samples was performed by a similar procedure, as mentioned above. […] The percentage inhibition (decrease revertant colony number) was calculated as in the following equation:Anti-mutagenicity (%) = [1 − (b/a)] × 100 • a = revertant colony number induced via standard mutagen (positive control). • b = revertant colony number induced by standard mutagen in the presence of each sample treatment.\n(§5) The percent of inhibition between 0–20%, 21–40%, 41–60%, and higher than 60% indicate negligible, weak, moderate, and strong anti-mutagenicity, respectively."}, "[6]": {"test_system": "S. typhimurium TA98", "test": "Ames test, anti-mutagenicity", "settings": "standard mutagen alone, 0.1 µg/plate, +S9", "experimental": "as §4, §5"}, "[7]": {"test_system": "D. melanogaster trans-heterozygous mwh+/+flr3 larvae of the HB cross", "test": "SMART wing spot test, mutagenicity, HB cross", "type": "in vivo, Drosophila melanogaster", "settings": "20 mM, positive control", "protocol": "(§6) The somatic mutation and recombination test, or the wing spot test, using D. melanogaster was employed as an in vivo system to assess the mutagenicity and anti-mutagenicity of chrysin-ES. Two different crosses were conducted: (i) a standard cross (ST) and (ii) a high bioactivation cross (HB) [18]. The standard cross larvae were obtained from virgin female of flr3/TM3, Ser crossed with males of mwh/mwh, while the HB cross larvae expressing cytochrome P450 enzymes involved in xenobiotic biotransformation were obtained from virgin females of ORR/ORR; flr^3/In (3LR) TM3, ri p^psep l (3)89Aa bx^34e e Bd^s crossed with males of mwh/mwh. The flies were cultured at a constant temperature of 25 ± 1 °C and 60–70% RH at photoperiod 12:12 (light/dark). To evaluate the mutagenicity of chrysin and chrysin-ES, a hundred larva F1 progenies derived from the above crossing were fed with instant Drosophila medium (Formula 4-24®), Carolina, Burlington, NC, USA) containing chrysin or chrysin-ES (20–120 µg/mL). DI was used as a negative control, while 20 mM urethane (URE) was used as a positive control. The larvae were reared on each medium until pupation at 25 °C. After that, forty wings of surviving flies in each group were collected for mutant analysis. The mutant spots on the wings, including small single spots, large single spots, and twin spots, were counted."}, "[8]": {"test_system": "D. melanogaster trans-heterozygous mwh+/+flr3 larvae of the ST cross", "test": "SMART wing spot test, mutagenicity, ST cross", "type": "in vivo, Drosophila melanogaster", "settings": "20 mM, positive control", "protocol": "as §6"}, "[9]": {"settings": "NMU alone (sodium nitrite 36 mM: methylurea 10 mM)"}, "[10]": {"settings": "Nitrite alone (sodium nitrite 36 mM)"}}, "note": "Where “and” joins values, the source holds several entries; their conditions need not be identical. Equal values may be shown once.", "data": [{"smiles": "Nc1ccc2cc3ccccc3cc2c1", "note": "[2-AA, 2-Aminoanthracene, reference compound]", "values": [{"measurement": "Number of Revertant Colonies", "setting": "[1]; +S9, 0.5 µg/plate", "value": "487 ± 29"}, {"measurement": "Number of Revertant Colonies", "setting": "[2]", "value": "459 ± 44"}]}, {"smiles": "NC(=O)C(=Cc1ccc([N+](=O)[O-])o1)c1ccco1", "note": "[AF-2, 2-(2-Furyl)-3-(5-nitro-2-furyl) acrylamide, reference compound]", "values": [{"measurement": "Number of Revertant Colonies", "setting": "[1]; −S9, 0.1 µg/plate", "value": "439 ± 30"}]}, {"smiles": "CCOS(C)(=O)=O", "note": "[EMS, ethyl methanesulfonate, reference compound]", "values": [{"measurement": "Mutant spots per individual (number of spots), Large Single", "setting": "[3]; EMS 5 mM alone", "value": "0.40 (16)"}, {"measurement": "Mutant spots per individual (number of spots), Small Single", "setting": "[3]; EMS 5 mM alone", "value": "10.00 (400)"}, {"measurement": "Mutant spots per individual (number of spots), Total", "setting": "[3]; EMS 5 mM alone", "value": "10.40 (416)"}, {"measurement": "Mutant spots per individual (number of spots), Twin", "setting": "[3]; EMS 5 mM alone", "value": "0 (0)"}, {"measurement": "Statistical diagnosis, Large Single", "setting": "[3]; EMS 5 mM alone, vs DI", "value": "+"}, {"measurement": "Statistical diagnosis, Small Single", "setting": "[3]; EMS 5 mM alone, vs DI", "value": "+"}, {"measurement": "Mutant spots per individual (number of spots), Large Single", "setting": "[4]; EMS 5 mM alone", "value": "1.75 (70)"}, {"measurement": "Mutant spots per individual (number of spots), Small Single", "setting": "[4]; EMS 5 mM alone", "value": "5.60 (224)"}, {"measurement": "Mutant spots per individual (number of spots), Total", "setting": "[4]; EMS 5 mM alone", "value": "7.80 (312)"}, {"measurement": "Mutant spots per individual (number of spots), Twin", "setting": "[4]; EMS 5 mM alone", "value": "0.45 (18)"}, {"measurement": "Statistical diagnosis, Large Single", "setting": "[4]; EMS 5 mM alone, vs DI", "value": "+"}, {"measurement": "Statistical diagnosis, Small Single", "setting": "[4]; EMS 5 mM alone, vs DI", "value": "+"}, {"measurement": "Statistical diagnosis, Total", "setting": "[4]; EMS 5 mM alone, vs DI", "value": "+"}, {"measurement": "Statistical diagnosis, Twin", "setting": "[4]; EMS 5 mM alone, vs DI", "value": "+"}]}, {"smiles": "Cn1c(N)nc2c3cccnc3ccc21", "note": "[IQ, 2-Amino-3-methylimidazo(4,5-f) quinoline, reference compound]", "values": [{"measurement": "Number of Revertant Colonies", "setting": "[5]", "value": "730 ± 39"}]}, {"smiles": "CNC(N)=O", "note": "[Methylurea, methylurea, reference compound]", "values": [{"measurement": "Statistical diagnosis, Small Single", "setting": "[3]; in vivo", "value": "−"}, {"measurement": "Statistical diagnosis, Small Single", "setting": "[4]; in vivo", "value": "−"}, {"measurement": "Statistical diagnosis, Total", "setting": "[4]; in vivo", "value": "−"}]}, {"smiles": "CN(N=O)C(N)=O", "note": "[NMU, N-nitrosomethylurea, reference compound]", "values": [{"measurement": "Mutant spots per individual (number of spots), Large Single", "setting": "[3]; [9]", "value": "0.40 (16)"}, {"measurement": "Mutant spots per individual (number of spots), Small Single", "setting": "[3]; [9]", "value": "1.43 (57)"}, {"measurement": "Mutant spots per individual (number of spots), Total", "setting": "[3]; [9]", "value": "1.93 (77)"}, {"measurement": "Mutant spots per individual (number of spots), Twin", "setting": "[3]; [9]", "value": "0.10 (4)"}, {"measurement": "Statistical diagnosis, Large Single", "setting": "[3]; NMU alone, vs DI", "value": "+"}, {"measurement": "Statistical diagnosis, Small Single", "setting": "[3]; NMU alone, vs DI", "value": "−"}, {"measurement": "Statistical diagnosis, Total", "setting": "[3]; NMU alone, vs DI", "value": "+"}, {"measurement": "Mutant spots per individual (number of spots), Large Single", "setting": "[4]; [9]", "value": "0.10 (4)"}, {"measurement": "Mutant spots per individual (number of spots), Small Single", "setting": "[4]; [9]", "value": "1.70 (68)"}, {"measurement": "Mutant spots per individual (number of spots), Total", "setting": "[4]; [9]", "value": "2.00 (80)"}, {"measurement": "Mutant spots per individual (number of spots), Twin", "setting": "[4]; [9]", "value": "0.20 (8)"}, {"measurement": "Statistical diagnosis, Small Single", "setting": "[4]; NMU alone, vs DI", "value": "+"}, {"measurement": "Statistical diagnosis, Total", "setting": "[4]; NMU alone, vs DI", "value": "+"}, {"measurement": "Statistical diagnosis, Twin", "setting": "[4]; NMU alone, vs DI", "value": "+"}]}, {"smiles": "O=N[O-].[Na+]", "note": "[Nitrite, sodium nitrite, reference compound]", "values": [{"measurement": "Mutant spots per individual (number of spots), Large Single", "setting": "[3]; [10]", "value": "0.03 (1)"}, {"measurement": "Mutant spots per individual (number of spots), Small Single", "setting": "[3]; [10]", "value": "0.25 (10)"}, {"measurement": "Mutant spots per individual (number of spots), Total", "setting": "[3]; [10]", "value": "0.28 (11)"}, {"measurement": "Mutant spots per individual (number of spots), Twin", "setting": "[3]; [10]", "value": "0 (0)"}, {"measurement": "Statistical diagnosis, Small Single", "setting": "[3]; Nitrite alone, vs DI", "value": "−"}, {"measurement": "Mutant spots per individual (number of spots), Large Single", "setting": "[4]; [10]", "value": "0 (0)"}, {"measurement": "Mutant spots per individual (number of spots), Small Single", "setting": "[4]; [10]", "value": "0.05 (2)"}, {"measurement": "Mutant spots per individual (number of spots), Total", "setting": "[4]; [10]", "value": "0.08 (3)"}, {"measurement": "Mutant spots per individual (number of spots), Twin", "setting": "[4]; [10]", "value": "0.03 (1)"}, {"measurement": "Statistical diagnosis, Small Single", "setting": "[4]; Nitrite alone, vs DI", "value": "−"}, {"measurement": "Statistical diagnosis, Total", "setting": "[4]; Nitrite alone, vs DI", "value": "−"}]}, {"smiles": "Cn1c(N)nc2ncc(-c3ccccc3)cc21", "note": "[PhIP, 2-amino-1-methyl-6-phenylimidazo (4,5-b) pyridine, reference compound]", "values": [{"measurement": "Number of Revertant Colonies", "setting": "[6]", "value": "400 ± 11"}]}, {"smiles": "CCOC(N)=O", "note": "[URE, urethane, reference compound]", "values": [{"measurement": "Mutant spots per individual (number of spots), Large Single", "setting": "[7]", "value": "3.10 (62)"}, {"measurement": "Mutant spots per individual (number of spots), Small Single", "setting": "[7]", "value": "10.10 (202)"}, {"measurement": "Mutant spots per individual (number of spots), Total Spots", "setting": "[7]", "value": "14.50 and 14.50 (290)"}, {"measurement": "Mutant spots per individual (number of spots), Twin", "setting": "[7]", "value": "1.30 (26)"}, {"measurement": "Statistical diagnosis, Large Single", "setting": "[7]; vs DI", "value": "+"}, {"measurement": "Statistical diagnosis, Small Single", "setting": "[7]; vs DI", "value": "+"}, {"measurement": "Statistical diagnosis, Total Spots", "setting": "[7]; vs DI", "value": "+"}, {"measurement": "Statistical diagnosis, Twin", "setting": "[7]; vs DI", "value": "+"}, {"measurement": "Mutant spots per individual (number of spots), Large Single", "setting": "[8]", "value": "0.08 (3)"}, {"measurement": "Mutant spots per individual (number of spots), Small Single", "setting": "[8]", "value": "3.73 (149)"}, {"measurement": "Mutant spots per individual (number of spots), Total Spots", "setting": "[8]", "value": "3.80 and 3.80 (152)"}, {"measurement": "Mutant spots per individual (number of spots), Twin", "setting": "[8]", "value": "0 (0)"}, {"measurement": "Statistical diagnosis, Large Single", "setting": "[8]; vs DI", "value": "+"}, {"measurement": "Statistical diagnosis, Small Single", "setting": "[8]; vs DI", "value": "+"}, {"measurement": "Statistical diagnosis, Total Spots", "setting": "[8]; vs DI", "value": "+"}]}]}
